Patent US5428168A, “Lactol PAF antagonists” (British Biotech Pharmaceuticals Limited, priority 1990, dated 1995)

Assays:
[1] = biological target: T1, PAF receptor (Homo sapiens, UniProt P25105); assay: Inhibition of [3H]-PAF receptor binding to human platelet plasma membrane (isotopic labelling and filtration); settings: human platelet membranes, 0.5 nM [3H]-PAF, 0° C., 1 hour
T1 construct: Platelet concentrates were obtained from a hospital blood bank; from tissue; host or cells: human platelets (plasma membrane fraction of lysed platelets from hospital blood bank concentrates)
Experimental: Compounds of general formula I inhibit PAF-induced functions in both the cellular and tissue levels by changing the PAF binding to its specific receptor site. The ability of compounds of general formula I to inhibit the binding of PAF to its specific receptor binding site on human platelet plasma membranes was measured according to the pharmacological example. […] Platelet concentrates were obtained from a hospital blood bank. These platelet concentrates (500-2500 ml.) were centrifuged at 800 rpm for 10 minutes in a SORVALL RC3B centrifuge to remove the red blood cells present. (The word SORVALL is a trade mark.) The supernatant was subsequently centrifuged at 3,000 rpm in a SORVALL RC3B centrifuge to pellet the platelets present. The platelet rich pellets were resuspended in a minimum volume of buffer (150 mM NaCl, 10 mM Tris, 2 mM EDTA, pH 7.5) and layered onto Ficoll-Paque gradients, 9 ml platelet concentrate to 2 ml Ficoll, and centrifuged at 1,900 rpm for 15 minutes in a SORVALL RT6000 centrifuge. This step removes the residual red blood cells and other nonspecific material such as lymphocytes from the preparation. The platelets which form a band between the plasma and the Ficoll were removed, resuspended in the above buffer and centrifuged at 3,000 rpm for 10 minutes in a SORVALL RT6000 centrifuge. The pelleted platelets were resuspended in buffer (10 mM Tris, 5mM MgCl2, 2 mM EDTA, pH 7.0), snap freezed in liquid N2 and allowed to thaw slowly at room temperature in order to lyse the platelets. The latter step was repeated at least 3 times to ensure proper lysis. The lysed platelets were centrifuged at 3,000 rpm for 10 minutes in a SORVALL RT6000 centrifuge and resuspended in buffer. The latter step was repeated twice in order to remove any cytoplasmic proteins which may hydrolyse the […]. The prepared platelet membranes may be stored at -70° C. After thawing the prepared membranes were centrifuged in a SORVALL RT6000 at 3,000 rpm for 10 minutes and resuspended in assay buffer. The assay was conducted by preparing a series of Tris-buffered solutions of the selected antagonist of predetermined concentrations. […] Incubation was initiated by the addition of 100 μg of the isolated membrane fraction to each of the above solutions at 0° C. […] (The word WHATMAN is a trade mark.) The residue in each case was rapidly washed 4 times with 5 ml cold (4° C.) Tris-buffer solution. […] % Inhibition=[(TB-TBA)/SB]x100 where the specific binding SB=TB-NSB […]

[2] = test system: endotoxin induced hypotension in the rat; assay: Reversal of endotoxin induced hypotension in anaesthetised rats; type: in vivo; settings: iv, i.v. bolus, E. coli endotoxin 0111:B4, straight line interpolation, read-out: ED50 (dose resulting in 50% reversal of endotoxin induced hypotension)
Experimental: Rats were anaesthetised with a mixture of sodium pentobarbitone, 22.5 mg·kg^-1, and thiopental, 62.5 mg·kg^-1. The animals breathed spontaneously, air enriched with oxygen, and a carotid artery was cannulated for the measurement of blood pressure and heart rate. […] Test compounds were administered i.v. via the other jugular vein as a bolus.

[3] = test system: PAF-induced bronchoconstriction in the guinea pig; assay: Reversal of PAF-induced bronchoconstriction in anaesthetised guinea-pigs (modified Konzett-Rossler); type: in vivo, guinea-pig (male Dunkin-Hartley); settings: Cavia porcellus, iv, PAF 40 ng/kg/min i.v., read-out: ED50 (dose resulting in 50% reversal of PAF-induced bronchoconstriction)
Experimental: The inhibition of PAF induced bronchoconstriction was measured in anaesthetised artificially ventilated guinea-pigs (450-500 g) using a modified version of the Konzett-Rossler technique (Konzett M and Rossler R, Naunym-Schmiedeb. Arch. Exp. Pathol. Pharmakol., 1940, 197, 71). Male Dunkin-Hartley guinea-pigs were anaesthetised with urethane, 1.6 g·kg^-1. Through a midline neck incision, the trachea was cannulated and the animal ventilated with a constant tidal volume set between 5 and 15 ml, to give a tracheal inflation pressure of 15 mmHg at a rate of 40 per minute. A carotid artery was cannulated for the measurement of blood pressure and heart rate and both jugular veins were cannulated, one for the infusion of PAF and the other for the administration of test compounds. PAF, 40 ng·kg^-1 ·min^-1, was infused i.v. to produced a 100% increase in tracheal inflation pressure, and bronchoconstrictor effects were determined.

[4] = test system: PAF-induced hypotension in the rat; assay: Reversal of PAF-induced hypotension in anaesthetised rats; type: in vivo, rat (male Sprague-Dawley); settings: iv, i.v. bolus, PAF 100 ng/kg/min i.v., straight line interpolation, read-out: ED50 (dose to cause 50% reversal of the hypotensive PAF response)
Experimental: Male Sprague-Dawley rats (300-400 g) were anaesthetised with a mixture of sodium pentobarbitone, 22.5 mg·kg^-1 and thiopental 62.5 mg·kg^-1. Through a midline incision in the neck, the trachea was cannulated and the animals breathed spontaneously. A carotid artery was cannulated for the measurement of blood pressure and this signal was used to trigger a rate meter to measure heart rate. Both jugular veins were cannulated: one for the infusion of PAF and the other for the bolus administration of test compounds.
PAF, 100 ng·kg^-1 .min^-1 was infused i.v. until a sustained fall in mean blood pressure of 50 mmHg was achieved. […] The peak of this reversal was measured and the dose to cause a 50% reversal of the hypotensive PAF response (ED50) calculated by straight line interpolation and the results are presented in Table 2.

T1 sequence (P25105 whole entry): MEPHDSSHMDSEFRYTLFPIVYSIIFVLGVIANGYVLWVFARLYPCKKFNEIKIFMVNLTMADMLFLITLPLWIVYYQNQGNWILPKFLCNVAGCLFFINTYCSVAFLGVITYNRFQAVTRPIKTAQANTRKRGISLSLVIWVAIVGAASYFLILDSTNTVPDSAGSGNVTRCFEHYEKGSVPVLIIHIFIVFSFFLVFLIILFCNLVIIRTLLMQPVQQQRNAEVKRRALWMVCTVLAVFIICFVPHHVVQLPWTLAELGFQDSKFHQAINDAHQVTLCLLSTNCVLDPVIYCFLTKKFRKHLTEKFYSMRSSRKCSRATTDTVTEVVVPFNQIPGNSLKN

## COc1ccc([C@H]2CC[C@H](OCCCn3c(C)nc4cnccc43)O2)cc1OC (relative stereo) [Example 30B, O-(3-(1H-2-Methylimidazo[4,5-c]pyridyl)propyl)-5-(3,4-dimethoxyphenyl)-gamma-butyrolactol ether]
[1]
  IC50: 7 nM
[2]
  ED50: 0.007 mg/kg

## COc1ccc([C@H]2CC[C@@H](OCCCc3cccnc3)O2)cc1OC (relative stereo) [Example 1B, cis-O-(3-(3-pyridyl)propyl)-5-(3,4-dimethoxyphenyl)-gamma-butyrolactol ether]
[3]
  ED50: 2.1 µg/kg
[4]
  ED50: 9 µg/kg
[2]
  ED50: 0.018 mg/kg
